In general, IC50 refers to the midpoint of a concentration-inhibition curve. What is called MIC is the lowest concentration that inhibits growth of the organism. For orientation: MBC means the smallest concentration meeting the test's criterion for killing.

The text below walks through data of publication PMC12348691, “Amesilide, a New Bicyclic Polyketide from the Marine Fungus Amesia nigricolor MUT6601” (Molecules, 2025).

One data set has as its system human monocytes (THP-1). Nature of the data set: Cytotoxicity assay (AlamarBlue), THP-1. It counts as cell-based. The note with it: PMA-activated. The procedure:
(§1) Human erythrocytes (RBC), human monocytes (THP-1), and peripheral blood mononuclear cells (PBMC) were used for this study. THP-1 cells (TIB-202) were obtained from ATCC (https://www.atcc.org (accessed on 26 January 2025)) and activated with PMA (phorbol myristate acetate) (100 ng/mL) for 48 h. Cells were grown in RPMI 1640 medium supplemented with fetal bovine serum (FBS) 10% (10270-098, GIBCO®) and penicillin/streptomycin (1%) (15140-122 GIBCO®) at 37 °C under 5% CO2 atmosphere.
(§2) For the cytotoxicity assay, THP-1 and PBMC medium cultures were added into 96-well plates with 5 × 10^3 cells per well. A two-fold dilution concentration series of each compound was added to the plates to final concentrations of 200 − 6.25 μM. AlamarBlue (DAL1025, ThermoFisher, Waltham, MA, USA), a ready-to-use resazurin-based solution, was used to measure cell viability after treatment with the extracts. A total of 10 µL was added to each well and the plate was incubated for 6–8 h at 37 °C. Fluorescence was then measured with the Biotek Synergy 2 Plate Reader using excitation at 530 nm and emission at 590 nm. The percentage of cell death was then calculated using the following formula (Equation (3)):(3) % Cellular Death = 100 × ODt − OD100/OD0 − OD100 where ODt = the fluorescence value of the test compound, OD100 = the fluorescence value for the culture medium, and OD0 = the fluorescence value for Triton 0.12%.
(In general: The colour change of resazurin is a common sign of viable cells or microbes.)

For data set [1], the system named is Leishmania infantum (LI01). Kind of data set: Antiparasitic activity (MIC), Leishmania infantum LI01. The class given is cell-based.
The test system of data set [2] is peripheral blood mononuclear cells (PBMC). Kind of data set: Cytotoxicity assay (AlamarBlue), PBMC. It counts as cell-based, human. The following applies: PBMC primary cells. The procedure: as §1, §2
Another data set relates to Candida albicans (CA01). Kind of data set: Antifungal assay (MIC), Candida albicans CA01. It counts as cell-based. The note with it: 48 h. The procedure:
(§3) Stock solutions of all compounds were prepared in DMSO. Two bacterial (E. coli UTI89 and S. aureus S25) and two yeast strains (C. krusei CK1 and C. albicans CA01) have been used for this study. […] Each culture was diluted 12 times to have a final OD value of 0.1. Then, 100 µL from the diluted (OD of 0.1) bacterial culture and 0.5 μL of each stock solution was added to the corresponding wells (in triplicate) in a 96-well plate to a final concentration of 50 μM. For the antifungal assay, the two strains C. krusei CK1 and C. albicans CA01 were spread on Petri plates with YPD (yeast-extract peptone dextrose) agar. Later, an isolated colony was collected in a tube containing 5mL of RGM (RPMI 1640® (21875, Invitrogen GIBCO®) + 34.56g/L MOPS) to have an OD of 0.05. The fungal culture and stock solutions of compounds were diluted and added to the wells as indicated for the antibacterial activity assay. To determine the potential inhibitory effect of extracts on fungal growth, absorbance at t = 0 h, t = 20 h (for antibacterial assay), and t = 48 h (for antifungal assay) were measured with the Biotek Synergy 2 Plate Reader at a wavelength of 600 nm and analyzed with the software Gen5 v3.08. Then, the differential OD was calculated (ODT48/20-ODT0) and compared to solvent control. […] Ampicillin was used as positive control (MIC of 0.5 µg/mL for all bacteria and 1.0 µg/mL for all fungi).

A further data set has as its system (CK01). Nature of the data set: Antifungal assay (MIC), Candida strain CK01. The following applies: 48 h. It counts as cell-based, Candida tropicalis.
A further data set deals with human erythrocytes (RBC). Kind of data set: Hemolytic assay, human erythrocytes. It counts as cell-based. The note with it: for IC50: Homo sapiens, Erythrocyte, 0.5 h; for cytotoxicity against human erythrocytes (RBC): result in words. The procedure:
as §1
For the hemolytic assay, freshly obtained human erythrocytes (RBCs) from patients were washed twice with PBS (pH 7.4). This assay was performed at 10% hematocrit with two-fold serial dilutions from 200 μM of test compounds in a final volume of 100 μL, followed by incubation at 37 °C under 5% CO2 atmosphere for 30 min. Later, the plates were centrifugated at 3000g for 5 min and supernatant was transferred onto a new 96-well plate. Finally, RBC lysis was determined by the absorbance of the supernatant at 540 nm. Results were calculated with the following formula (Equation (2)):(2) % hemolysis = 100 × ODt − OD100/OD0 − OD100 where ODt = the absorbance value of test compounds; OD100 = the absorbance value of the medium; and OD0 = the absorbance value of the wells treated with 1% Triton-X.

For data set [3], the system named is all bacteria (E. coli UTI89 and S. aureus S25). Nature of the data set: Antibacterial assay, positive control, all bacteria. The class given is cell-based. The note with it: Escherichia coli. The procedure: as §3
For another data set, the system named is Escherichia coli (UTI89). Kind of data set: Antibacterial assay (MIC), Escherichia coli UTI89. The class given is cell-based. The note with it: 20 h. The procedure:
as §3

Data set [4] relates to Staphylococcus aureus (S25). Kind of data set: Antibacterial assay (MIC/MBC), Staphylococcus aureus S25. It counts as cell-based. The following applies: for MIC: 20 h. The procedure:
as §3

The subject of data set [5] is all fungi (C. krusei CK1 and C. albicans CA01). Kind of data set: Antifungal assay, positive control, all fungi. The class given is cell-based. The following applies: Pichia kudriavzevii. The procedure: as §3
Another data set concerns Staphylococcus aureus. The following applies: result in words; cited from earlier work.
Data set [6] has as its system Niemann-Pick C1-like 1 (NPC1L1) protein. The arrangement: method as in PMID 30665368. The note with it: reducing the cholesterol absorption; cited from earlier work.
Setting [7] is: Homo sapiens, THP-1 cell line, read-out: IC50.
Setting [8] is: RBC primary cells, hemolysis, 30 min, 10% hematocrit, read-out: IC50.
Where [9] appears, read: Staphylococcus aureus (S25), OD 600 nm, inhibiting bacterial growth, read-out: MIC.
The mark [10] stands for this setting: Homo sapiens, THP-1, THP-1 cell line.

≈ marks a conversion by molar mass, not a printed value. Like-named read-outs stand apart in the source and are kept apart here.

`C[C@@H]1[C@H](O)[C@@H](C)/C=C/C=C/C=C/C=C/C=C/C=C/C=C/[C@H](O[C@@H]2O[C@H](C)[C@@H](O)[C@H](N)[C@@H]2O)C[C@@H]2O[C@](O)(C[C@@H](O)C[C@@H](O)[C@H](O)CC[C@@H](O)C[C@@H](O)CC(=O)O[C@H]1C)C[C@H](O)[C@H]2C(=O)O` [Amphotericin B, reference compound]: the IC50 in the data set on human monocytes (THP-1) (setting [7]) stood at 3.13 µM; in data set [2] (Homo sapiens, read-out: IC50), 6.25 µM; in the data set on human erythrocytes (RBC) (setting [8]) it was 25 µM. For the same molecule, the minimal inhibitory concentration (MIC) in data set [1] (Leishmania infantum (LI01), read-out: MIC) turned out to be 0.39 µM (≈ 0.36 µg/mL); with Candida albicans (CA01) (Candida albicans (CA01), OD 600 nm, read-out: MIC), 0.2 µM; in the data set with (CK01) (Candida tropicalis (CK01), OD 600 nm, read-out: MIC), 0.2 µM (≈ 0.185 µg/mL).
For the molecule `CC1(C)S[C@@H]2[C@H](NC(=O)[C@H](N)c3ccccc3)C(=O)N2[C@H]1C(=O)O` [Ampicillin, reference compound], the MIC is 0.5 µg/mL in data set [3]; above 100 µM with Escherichia coli (UTI89) (Escherichia coli (UTI89), OD 600 nm, read-out: MIC); 1.56 µM in data set [4] (setting [9]); 1 µg/mL in data set [5]. The IC50 is above 200 µM in the data set with human monocytes (THP-1) (setting [7]); above 200 µM in data set [2] (Homo sapiens, read-out: IC50); above 200 µM with human erythrocytes (RBC) (setting [8]).
In the case of `C[C@@H]1Oc2cc3c(-c4c(O)cc(O)c5c(O)c6c(cc45)O[C@H](C)[C@@H](C)C6=O)c(O)cc(O)c3c(O)c2C(=O)[C@@H]1C` [compound 8, chaetochromin B], the IC50 in the data set with human monocytes (THP-1) (setting [10]) was 37.3 µM; in the data set on human monocytes (THP-1) (THP-1 cell line), 33.6 to 40 µM; in [2] (Homo sapiens, PBMC) it was 40 µM; in [2] it was 33.6 to 40 µM; with human erythrocytes (RBC), above 200 µM. For the same molecule, the MIC in [1] (Leishmania infantum) is above 100 µM; in the data set with Escherichia coli (UTI89) (Escherichia coli) it was above 100 µM; in data set [4] (setting [9]) it was 6.25 µM; in data set [4] (Staphylococcus aureus) it was 6.25 µM; in the data set on Candida albicans (CA01) (Candida albicans), 100 µM; against (CK01) (Candida tropicalis), above 100 µM. Moreover, the MBC in data set [4] (Staphylococcus aureus) is 12.5 µM. Also, the “cytotoxicity against human erythrocytes (RBC)” value with human erythrocytes (RBC) is listed as “no cytotoxicity”.
Consider `CC1=CC2(O)C(C3(C)CC(C)CC(C)C(=O)O3)CC(=O)C23C(=O)N(C)C(=O)C(c2ccccc2)C3C1C` (stereo not drawn) [compound 2, chamiside A], for which the “antibacterial activity against Staphylococcus aureus” value in the data set with Staphylococcus aureus is listed as “moderate antibacterial activity”.
Regarding Chamiside F, the “inhibitory activity against NPC1L1” value in data set [6] was “inhibitory activity”.
Regarding `C[C@H]1Oc2cc3c(-c4c(O)cc(O)c5c(O)c6c(cc45)O[C@H](C)[C@@H](C)C6=O)c(O)cc(O)c3c(O)c2C(=O)[C@@H]1C` [compound 7, chaetochromin A], the IC50 was 33.6 µM in the data set with human monocytes (THP-1) (setting [10]); 33.6 to 40 µM in the data set on human monocytes (THP-1) (THP-1 cell line); 35.4 µM in [2] (Homo sapiens, PBMC); 33.6 to 40 µM in [2]; above 200 µM with human erythrocytes (RBC). In addition, the MIC in [1] (Leishmania infantum) is above 100 µM; with Escherichia coli (UTI89) (Escherichia coli), above 100 µM; in data set [4] (setting [9]) it was 6.25 µM; in [4] (Staphylococcus aureus), 6.25 µM; in the data set on Candida albicans (CA01) (Candida albicans), above 100 µM; against (CK01) (Candida tropicalis), above 100 µM. The MBC in data set [4] (Staphylococcus aureus) worked out at 12.5 µM. Further, the “antibacterial activity against S. aureus” value in the data set on Staphylococcus aureus is “strong antibacterial activity”. Further, in the data set on human erythrocytes (RBC), the “cytotoxicity against human erythrocytes (RBC)” value is reported as “no cytotoxicity”.
